Key:
CT26 tumor = assay: CT26 dual tumor model; details: all the lower doses (0.6-5 mg/kg), I.T., single dose
Procedure: For study B, treatment was started 8 days (0.6 mg/kg, and 10 mg/kg) after the tumor implantation, when the average tumors reached approximately 120 mm^3.
All the mice in the study have two subcutaneous CT26 tumors. The “treated tumor” indicates the tumor with compound direct administration, while “untreated tumor” indicates the tumor without direct compound administration. Tumor volume was followed throughout the experiment. Tumor volume is measured two times weekly after the start of treatment. Tumor burden is calculated from caliper measurements by the formula for the volume of a prolate ellipsoid (L×W^2)/2 where L and W are the respective orthogonal length and width measurements (mm).

human PBMC [1] = assay: Ex vivo human PBMC stimulation assay, IFNβ mRNA (qPCR); details: 0.1-10 μM, 3 hr and 24 hr
Procedure: For IFNβ mRNA quantification, total RNA was isolated using the RNeasy Mini Kit (Qiagen, Germany) according to the manufacturer's protocol. IFNβ mRNA was quantified by qPCR assay. In brief, total RNA (400 ng to 1000 ng) was converted to cDNA in a 60-μl reaction volume using SuperScript VILO MasterMix (Life Technologies, USA). Obtained cDNAs (10 ng) were subsequently amplified using Applied Biosystems TaqMan expression assays using RNA-specific primers for IFNB1 (Hs01077958_s1), and GAPDH (Hs99999905_m1). A qPCR analysis was performed with TaqMan Fast Advanced Master Mix (Life Technologies, USA) on the Applied Biosystems Quantstudio 12K Flex Real-Time PCR System, with an initial 2-min step at 50° C. followed by 95° C. for 2 s and 40 cycles of 95° C. for 1 s and 60° C. for 20 s. Relative gene expression was calculated after normalization against the reference gene GAPDH using the 2-ΔΔCT method. Calculations were done using the Applied Biosystems Quantstudio 12K Flex software v1.2.2.

hepatocytes of human = assay: Hepatocyte incubation, metabolite identification, human; format: in vitro ADME; details: LC-MS/MS
Excerpt: (§1) Cryopreserved pooled hepatocytes were purchased from ThermoFisher Scientific (Waltham, Mass.), Xenotech, LLC (Kansas City, Kans.) and In Vitro ADMET Laboratories (Columbia, Md.), and the appropriate media were purchased from In Vitro ADMET Laboratories (Columbia, Md.) and Life Technologies (Carlsbad, Calif.). AOPI staining solution and phosphate buffer were obtained from Corning Life Sciences (Tewksbury, Mass.) and Nexcelom Bioscience (Lawrence, Mass.), respectively. All chemicals, reagents, and solvents used in analysis were of either analytical or HPLC grade.
(§2) Prior to incubations, the cryopreserved hepatocytes were thawed in a water bath at 37° C. One tube of cryopreserved hepatocytes was added to each 50-mL conical tube of cryopreserved hepatocyte recovery medium (UCRM) obtained from In Vitro ADMET Laboratories (Columbia, Md.). The cells were spun in a Beckman centrifuge (Brea, Calif.) with a GH 3.8 rotor at 740 rpm for 10 minutes at room temperature 4° C. […] The solution was gently mixed and cells were counted using a Cellometer (Nexcelom, Lawrence, Mass.). […]
(§3) The LC-MS/MS system was composed of a Shimadzu HPLC and an AB-SCIEX TripleTOF 5600 hybrid quadrupole and TOF mass spectrometer (Framingham, Mass.). […] The samples obtained from incubations with hepatocytes were analyzed under both negative and positive scan modes. […]

[2] = system: hepatocytes of Beagle dog; assay: Hepatocyte incubation, metabolite identification, dog; format: in vitro ADME; details: LC-MS/MS
Excerpt: as §1, §2, §3

[3] = system: hepatocytes of Cynomolgus monkey; assay: Hepatocyte incubation, metabolite identification, monkey; format: in vitro ADME; details: LC-MS/MS
Excerpt: as §1, §2, §3

[4] = system: hepatocytes of Sprague Dawley rat; assay: Hepatocyte incubation, metabolite identification, rat; format: in vitro ADME; details: LC-MS/MS
Excerpt: as §1, §2, §3

[5] = system: hepatocytes of CD-1 mouse; assay: Hepatocyte incubation, metabolite identification, mouse; format: in vitro ADME; details: LC-MS/MS
Excerpt: as §1, §2, §3

human PBMC [6] = assay: Ex vivo human PBMC stimulation assay, IFNβ protein; format: cell-based; details: 0.1, 1, 10 uM, 24 hours
Procedure: After 24 hours of incubation the tubes were centrifuged at 1400 rpm for 5 minutes and supernatants were harvested. Supernatant were stored in −80° C. for subsequent IFNβ measurement. IFNβ measurement was done using Human IFN-β Base Kit (Meso Scale Diagnostics cat # K151ADA) and protocol provided by manufacturer was used. IFN-beta estimation was done by reading assay plate at MESO SECTOR Imager 2400 and using MSD Discovery Workbench 4.0 program. After 24 hours IFNβ protein was analyzed.
Results shown in Table 10 reflect an average of measurements conducted using five different donors.

## O=[P@]1(S)OC[C@H]2O[C@@H]3[C@H](F)[C@@H]2O[P@](=O)(S)OC[C@H]2O[C@H]([C@H](F)[C@@H]2O1)n1cnc2c(ncnc21)NC/C=C/CNc1ncnc2c1ncn23 [Compound 1a]
CT26 tumor
  anti-tumor effect on untreated tumors: tumor growth inhibition activity
Human PBMC [1]
  induction of IFNβ mRNA in primary PBMC: dose- and time-dependent manner
Hepatocytes of human
  metabolites identified in hepatocyte incubations: No apparent metabolite
[2]
  metabolites identified in hepatocyte incubations: No apparent metabolite
[3]
  metabolites identified in hepatocyte incubations: No apparent metabolite
[4]
  metabolites identified in hepatocyte incubations: No apparent metabolite
[5]
  metabolites identified in hepatocyte incubations: No apparent metabolite
Human PBMC [6]
  induction of primary human PBMC IFNβ protein production: dose-dependent manner

Reference: US20200055883A1, “CYCLIC DI-NUCLEOTIDES DERIVATIVE FOR THE TREATMENT OF CANCER” (Eisai R&D Management Co., Ltd., priority 2017, published 2020)
